Measured values: patent publication US5786324A, “Synthetic peptides with bactericidal activity and endotoxin neutralizing activity for gram negative bacteria and methods for their use” (priority 1994, dated 1998)
Like-named read-outs stand apart in the source and are kept apart here. No end group written: not given here.

Key:
[1] = tested on: Pseudomonas aeruginosa type 1; format: cell-based; conditions: for Effective Dose Bactericidal pH 5.6 P. aeruginosa Molar Concentration: Table 5
Method: Bactericidal activity can be evaluated against a variety of bacteria such as Pseudomonas spp including aeruginosa and P. cepacia, E. coli B, and Staphylococcus aureus. The preferred organism is P. aeruginosa. Bactericidal activity is determined by identifying the effective dose for killing as the molar concentration of the peptide which results in at least a 60% killing of the bacteria, as determined by standard methods. Preferably, the peptide has an effective dose at a concentration of about 1×10^-4 M to about 1×10^-10 M, and more preferably 1×10^-7 M to 1×10^-9M . […] The effective dose for bactericidal activity of B/PI is seen at about […] . Bactericidal activity can also be determined by calculating a lethal dose 50 (LD50) using standard methods. The LD50 is that amount of peptide or protein that kills 50% of the bacteria when measured using standard dose response methods. A bactericidal peptide preferably has an LD50 of about 10^-4 M to about 10^-9 M , more preferably about 10^-7 to 10^-9 M .
(§1) The synthetically produced peptides were assayed for bactericidal activity against Pseudomonas aeruginosa, type 1, P. cepacia ATCC 25608, E. coli B, and Staphylococcus aureus 502A by standard methods.
(§2) Pseudomonas aeruginosa type 1 is a clinical isolate maintained in the laboratory since 1972. The isolate remains a smooth strain and was serotyped by the scheme of Homma. Homma, Jpn. J. Exp. Med., 46:329 (1976). A rough strain E. coli B and S. aureus 502A were obtained from Paul Quie, University of Minnesota. The characteristics of the S. aureus strain have been described in Shinefield et al., Amer. J. Dis. Chil., 105:646 (1963). Pseudomonas cepacia ATCC 25608 was purchased from the American Type Culture Collection in 1980. S. aureus and E. coli were maintained on nutrient agar plates and the Pseudomonas strains were maintained on blood agar plates.
(§3) Pyrogen-free solutions were used throughout this assay and all methods which follow. Log phase bacteria were prepared from a culture in brain heart infusion broth as previously described except that bacteria were washed and resuspended in saline with adjustment to an optical density at 650 nm which would yield 3×10^8 CFU/ml. Bacteria were then diluted 1:10 in 0.08M citrate phosphate buffer, pH 5.6 or pH 7.0, for use in the assay. S. aureus rapidly lost viability in the pH 5.6 buffer and was studied only at pH 7.0. Bactericidal activity was determined by dose response and where an LD50 is indicated, it was determined by linear regression.

Human lung fibroblasts = assay: Toxicity for human lung fibroblasts, trypan blue exclusion; format: cell-based; conditions: 30 minutes; for Percent Viability DMEM: DMEM plus 10% FCS; for Percent Viability PBS: pH 7.4
Method: The synthetic peptides were assayed for toxicity to cultured eukaryotic cells. Human lung fibroblasts were grown in monolayers in Dulbecco's Modified Eagles' Medium (DMEM) with 10% fetal calf serum (FCS) and originated as primary cultures of lung mesenchymal cells. The cells were trypsinized, washed with either DMEM plus FCS or phosphate-buffered saline (PBS), pH 7.4, and incubated with peptide at a final cell concentration of 1×10^7 /ml. Nine volumes of cell suspension were diluted with one volume of 0.4% trypan blue and the cells were counted with a hemocytometer, while also determining the fraction of cells which were increased in permeability to dye. There was no significant loss of cell number due to exposure of the fibroblasts to peptide.
^a Viability was determined by trypan blue exclusion following
incubation of cells with peptide for 30 minutes in DMEM plus 10% FCS or i

E. coli B = assay: Bactericidal assay, E. coli B; format: cell-based
Method: as §1, §2, §3

E. coli 055: B5 LPS = assay: Limulus amoebocyte lysate assay, neutralization of endotoxin; format: biochemical; conditions: for Effective Dose Endotoxin Neutralization (Molar Concentration): Table 8, LAL
From the text: The peptide selected can also have endotoxin neutralizing activity. […] Endotoxin neutralizing activity can also be measured by calculating an inhibitory dose 50 […] using standard does response methods. An inhibitory dose 50 is that amount of peptide that can inhibit 50% of the activity of endotoxin. Endotoxin activity can also be measured by determining the amount of release of tumor necrosis factor alpha (TNFα) from a macrophage cell line or by evaluating the symptoms of shock in animals. Peptides preferably neutralized endotoxin at a molar concentration of about 1×10^-4 M to about 10^-8 M , more preferably about 10^-5 M to about 10^-6 M .
The ability of synthetic peptides to neutralize endotoxin was detected with the E-TOXATE kit manufactured by Sigma Chemicals, St. Louis, Mo. […] Peptide was incubated with LPS at room temperature for 10 minutes in 100 μl of a 1:2 dilution of pyrogen-free saline, pH 6.4. The reaction was started by addition of 100 μl of amoebocyte lysate and the final volume was 200 μl.
^a The dose of peptide required to inhibit clotting of LAL by 100%.
Each tube contained 0.04 endotoxin units of E. coli LPS.

P. cepacia ATCC 25608 = assay: Bactericidal assay, P. cepacia; format: cell-based, Pseudomonas cepacia; conditions: P. cepacia
Method: as §1, §2, §3

[2] = tested on: Staphylococcus aureus 502A; format: cell-based
Method: as §1, §2, §3

[3] = Table 7, dose required to inhibit clotting of LAL by 100%, 0.04 endotoxin units of E. coli LPS
[4] = P. aeruginosa, pH 5.6, 3.0 × 10^-5 M
[5] = P. aeruginosa, pH 5.6, 1.5 × 10^-5 M

Compound: EFYSENHHNPKWKAQKRFLK [Peptide 18, efysenhhnpkwkaqkrflk]
- % Killing of 5 × 10^6 Bacteria ([1]; type 1, 3.0e-5 M, pH 5.6): 79%
- Percent Viability DMEM (Human lung fibroblasts; 1.5 × 10^-4 M): 98.8%
- Percent Viability PBS (Human lung fibroblasts; 1.5 × 10^-4 M): 95.6%

Compound: CEFYSENHHNPKWKAQKRFLK [Peptide 17, cefysenhhnpkwkaqkrflk]
- % Killing of 5 × 10^6 Bacteria ([1]; type 1, 3.0e-6 M, pH 5.6): 74%
- % Killing of 5 × 10^6 Bacteria (E. coli B; E. coli B, pH 5.6, 3.0 × 10^-5 M): 71%
- Percent Viability DMEM (Human lung fibroblasts; 1.5 × 10^-5 M): 99.2%
- Percent Viability PBS (Human lung fibroblasts; 1.5 × 10^-5 M): 92.3%

Compound: kisgkwkaqkrflkmsgnf [Peptide 35]
- % Killing of 5 × 10^6 Bacteria ([1]; P. aeruginosa, pH 5.6, 1.5 × 10^-7 M): 58%
- Effective Dose Bactericidal pH 5.6 P. aeruginosa Molar Concentration ([1]; pH 5.6): 1.5 × 10^-7 M
- Effective Dose Endotoxin Neutralization (Molar Concentration) (E. coli 055: B5 LPS): 450 µM
- neutralization of endotoxin in the LAL (in words) (E. coli 055: B5 LPS; highest concentration tested 4.5×10^-4 M): did not neutralize endotoxin

Compound: cefysenhhnp(g) [Peptide 3]
- % Killing of 5 × 10^6 Bacteria ([1]; P. aeruginosa, pH 5.6, 1.2 × 10^-4 M): 0%
- % Killing of 5 × 10^6 Bacteria ([1]; P. aeruginosa, pH 7.0, 1.2 × 10^-4 M): 0%
- Effective Dose Bactericidal pH 5.6 P. aeruginosa Molar Concentration ([1]; pH 5.6): -- (not active at concentrations of 1.2 × 10^-4 M or less)
- % Killing of 5 × 10^6 Bacteria (P. cepacia ATCC 25608; pH 5.6, 1.2 × 10^-4 M): 0%
- % Killing of 5 × 10^6 Bacteria (P. cepacia ATCC 25608; pH 7.0, 1.2 × 10^-4 M): 0%
- % Killing of 5 × 10^6 Bacteria (E. coli B; E. coli, pH 5.6, 1.2 × 10^-4 M): 0%
- % Killing of 5 × 10^6 Bacteria (E. coli B; E. coli, pH 7.0, 1.2 × 10^-4 M): 0%
- % Killing of 5 × 10^6 Bacteria ([2]; S. aureus, pH 7.0, 1.2 × 10^-4 M): 0%
- peptide concentration which neutralized endotoxin (100% inhibition of LPS-induced gelation) (E. coli 055: B5 LPS; 0.04 endotoxin units of E. coli 055: B5 LPS): 120 µM
- Effective Dose (μg/0.2 ml) (E. coli 055: B5 LPS; [3]): 34 μg/0.2 ml
- Effective Dose M (× 10^-4) (E. coli 055: B5 LPS; [3]): 1.2 M (× 10^-4)
- Effective Dose Endotoxin Neutralization (Molar Concentration) (E. coli 055: B5 LPS): 120 µM

Compound: kkkffrlakq [Peptide 27]
- % Killing of 5 × 10^6 Bacteria [1, 4]: 49%
- Effective Dose Bactericidal pH 5.6 P. aeruginosa Molar Concentration ([1]; pH 5.6): 3.0 × 10^-5 M
- bacterial killing activity compared with parent peptide (in words) ([1]; pH 5.6, P. aeruginosa): little or no effect
- Effective Dose Endotoxin Neutralization (Molar Concentration) (E. coli 055: B5 LPS): -- (not active at concentrations of 4.5 × 10^-4 M or less)

Compound: CC(C)C[C@H](NC(=O)[C@H](Cc1ccccc1)NC(=O)[C@H](CCCNC(=N)N)NC(=O)[C@H](CCCCN)NC(=O)[C@H](CCC(N)=O)NC(=O)[C@H](C)NC(=O)[C@H](CCCCN)NC(=O)[C@H](Cc1c[nH]c2ccccc12)NC(=O)[C@@H](N)CCCCN)C(=O)N[C@@H](CCCCN)C(=O)O [Peptide 5, kwkaqkrflk]
- % Killing of 5 × 10^6 Bacteria ([1]; type 1, 1.5e-5 M, pH 5.6): 75%
- LD50 for P. aeruginosa ([1]; type 1, pH 5.6): 8.2 µM
- % Killing of 5 × 10^6 Bacteria (E. coli B; E. coli B, pH 5.6, 3.0 × 10^-5 M, listed as #90-99): 31%
- Percent Viability DMEM (Human lung fibroblasts; 1.5 × 10^-4 M): 98.0%
- Percent Viability PBS (Human lung fibroblasts; 1.5 × 10^-4 M): 89.4%

Compound: qkrflkmsgn [Peptide 33]
- Effective Dose Bactericidal pH 5.6 P. aeruginosa Molar Concentration ([1]; pH 5.6): -- (not active at concentrations of 1.2 × 10^-4 M or less)
- Effective Dose Endotoxin Neutralization (Molar Concentration) (E. coli 055: B5 LPS): 450 µM

Compound: ktkckflkkc [Peptide 25, reference compound]
- % Killing of 5 × 10^6 Bacteria ([1]; P. aeruginosa, pH 5.6, 6.0 × 10^-6 M): 56%
- Effective Dose Bactericidal pH 5.6 P. aeruginosa Molar Concentration ([1]; pH 5.6): 6.0 × 10^-6 M
- Effective Dose Endotoxin Neutralization (Molar Concentration) (E. coli 055: B5 LPS): -- (not active at concentrations of 4.5 × 10^-4 M or less)

Compound: msgnfdlsie [Peptide 29]
- Effective Dose Bactericidal pH 5.6 P. aeruginosa Molar Concentration ([1]; pH 5.6): -- (not active at concentrations of 1.2 × 10^-4 M or less)
- Effective Dose Endotoxin Neutralization (Molar Concentration) (E. coli 055: B5 LPS): 220 µM

Compound: kwkfkqralk [Peptide 26]
- % Killing of 5 × 10^6 Bacteria [1, 5]: 61%
- Effective Dose Bactericidal pH 5.6 P. aeruginosa Molar Concentration ([1]; pH 5.6): 1.5 × 10^-5 M
- Effective Dose Endotoxin Neutralization (Molar Concentration) (E. coli 055: B5 LPS): 300 µM

Compound: cnanikisgkwkaqkrflkmsgnfdlsic [Peptide 23]
- % Killing of 5 × 10^6 Bacteria ([1]; P. aeruginosa, pH 5.6, 3 × 10^-7 M): 67%
- Effective Dose Bactericidal pH 5.6 P. aeruginosa Molar Concentration ([1]; pH 5.6): 3 × 10^-7 M
- Effective Dose Endotoxin Neutralization (Molar Concentration) (E. coli 055: B5 LPS): 30 µM

Compound: CC(C)C[C@H](NC(=O)[C@H](Cc1ccccc1)NC(=O)[C@H](CCCNC(=N)N)NC(=O)[C@H](CCCCN)NC(=O)[C@H](CCC(N)=O)NC(=O)[C@H](C)NC(=O)[C@H](CCCCN)NC(=O)[C@H](Cc1c[nH]c2ccccc12)NC(=O)[C@H](CCCCN)NC(=O)[C@@H](N)CS)C(=O)N[C@@H](CCCCN)C(=O)O [Peptide 2, ckwkaqkrflk]
- % Killing of 5 × 10^6 Bacteria ([1]; type 1, 1.5e-6 M, pH 5.6): 83%
- % Killing of 5 × 10^6 Bacteria (P. cepacia ATCC 25608; pH 5.6, 1.5 × 10^-5 M): 80%
- % Killing of 5 × 10^6 Bacteria (P. cepacia ATCC 25608; pH 7.0, 1.5 × 10^-5 M): 78%
- % Killing of 5 × 10^6 Bacteria (E. coli B; E. coli B, pH 5.6, 1.5 × 10^-5 M, listed as C#90-99): 98%
- % Killing of 5 × 10^6 Bacteria (E. coli B; E. coli, pH 7.0, 1.5 × 10^-5 M): 90%
- % Killing of 5 × 10^6 Bacteria ([2]; 502A, 3e-5 M, pH 7): 95%
- Percent Viability DMEM (Human lung fibroblasts; 1.5 × 10^-5 M): 98.4%
- Percent Viability PBS (Human lung fibroblasts; 1.5 × 10^-5 M): 94.7%

Compound: sdsflkikhlgkghysfysmdirefq [Peptide 12]
- % Killing of 5 × 10^6 Bacteria [1, 5]: 58%
- Effective Dose Bactericidal pH 5.6 P. aeruginosa Molar Concentration ([1]; pH 5.6): 1.5 × 10^-5 M
- Effective Dose Endotoxin Neutralization (Molar Concentration) (E. coli 055: B5 LPS): 75 µM

Compound: anikisgkwk [Peptide 31]
- % Killing of 5 × 10^6 Bacteria [1, 4]: 53%
- Effective Dose Bactericidal pH 5.6 P. aeruginosa Molar Concentration ([1]; pH 5.6): 3.0 × 10^-5 M
- Effective Dose Endotoxin Neutralization (Molar Concentration) (E. coli 055: B5 LPS): 220 µM

Compound: kkkwfrlakq [Peptide 21]
- % Killing of 5 × 10^6 Bacteria [1, 5]: 71%
- Effective Dose Bactericidal pH 5.6 P. aeruginosa Molar Concentration ([1]; pH 5.6): 1.5 × 10^-5 M
- bacterial killing activity compared with parent peptide (in words) ([1]; pH 5.6, P. aeruginosa): retained biological activity
- Effective Dose Endotoxin Neutralization (Molar Concentration) (E. coli 055: B5 LPS): -- (not active at concentrations of 4.5 × 10^-4 M or less)
